Reference: US20020058708A1, “Compositions containing hypotriglyceridemically active stilbenoids” (priority 2000, published 2002)

Experiments:
[1] = reported by Arichi et al. 1982; cited from earlier work
[2] = test system: fat fed, STZ treated male Sprague Dawley rats; experiment: In vivo hypotriglyceridemic activity: serum triglyceride levels in fat-fed STZ treated rats; design: species or system rat; details: 250 mg/kg body weight q.d.
Description: This example illustrates the effectiveness of the stilbenoids of formula (I) in reducing serum triglyceride levels in fat-fed STZ treated male Sprague Dawley rats, i.e., an art-recognized model of hypertriglyceridemia.
This example illustrates the effectiveness of the stilbenoids of formula (I), e.g. longistyline A-2-carboxylic acid (Compound A) in reducing serum triglyceride levels in fat fed, STZ treated male Sprague Dawley rats, i.e., an art recognized model of hypertriglyceridemia. […]
Blood samples from tail snips bleeds were collected six hours after the dose on day one, and three (3) and six (6) hours after the administration of the dose on days 2 through 4 into M brand (Becton Dickinson, Franklin Lakes, N.J.) serum separator tubes, and centrifuged at 12,000 rpm for 10 minutes. Serum was removed and triglyceride levels were measured using enzymatic […] methods (M. W. McGowan, et al., Clin. Chem. 29, 538 (1983) and P Trinder, Ann. Clin. Biochem. 6, 24 (1969)) using Sigma Diagnostic Kits, Sigma Chemical Company, St. Louis, Mo.
Triglyceride levels are expressed as the mean ±SEM. Data were analyzed by one-way analysis of variance (ANOVA), followed by post-hoc Fisher's protected least squares difference (PLSD) tests. […]

[3] = Daily mean body weight of treated fat fed, STZ treated rats; assay type: in vivo, rat; details: 250 mg/kg q.d.; FIG. 3
Method: (§1) FIG. 3 is a line graph showing the mean body weight […] in fat fed, STZ treated rats administered with GELUCIRE™ vehicle only; and 3-hydroxy-4-(3-methyl-2-butenyl)-5-methoxystilbene-2-carboxylic acid (Compound A). -∘- represents vehicle; and -▪- represents Compound A administered at 250 mg/kg q.d. Animals were administered the vehicle and compounds at 24, 48, 72 and 96 h, and serum triglyceride levels were measured at 0, 30, 51, 54, 75 and 80 hours after the oral administration. All data points N=8. *P<0.05 (analysis of variance (ANOVA), one factor).
(§2) Male Sprague Dawley rats arrival from Charles River Laboratories, Hollister, Calif., were fed a high fat (20% by weight) diet (TD 78463) obtained from Harlan Teklad, Madison, Wis., which was stored at 4° C. prior to use. Administration of a high fed diet is a well-known method of inducing hypertriglyceridemia in rats.
(§3) Compound A formulations were prepared fresh daily. The appropriate amount of Compound A in GELUCIRE™ was administered by oral gavage at a volume of 2.5 ml/kg of body weight. Animals were fasted at 8:00 am each day.

[4] = Daily mean food consumption of treated fat fed, STZ treated rats; assay type: in vivo, rat; details: 250 mg/kg q.d.; FIG. 4
Method: as §1, with “FIG. 4” for “FIG. 3”, “mean food consumption” for “mean body weight”
as §2, §3

SMILES | Serum triglyceride levels [1] | Serum triglyceride (TG) levels compared with vehicle only ([2]; oral gavage in GELUCIRE vehicle, at each of the time points, p<0.05, FIG. 2) | Mean TG levels compared with GELUCIRE vehicle treatment group at individual sampling times ([2]; from day 2 through the end of treatment) | Gain in rat body weight over the course of treatment [3] | Food intake (daily mean food consumption) [4] | Liver lipid levels [1]
OC[C@H]1OC(Oc2c(O)cc(O)cc2C=Cc2ccc(O)cc2)[C@H](O)[C@@H](O)[C@@H]1O (stereo partly drawn) [2,3,5,4′-tetrahydroxy stilbene-2-O-D-glucoside] | reduce |  |  |  |  | 
COc1cc(/C=C/c2ccccc2)c(C(=O)O)c(O)c1CC=C(C)C [Compound A, 3-hydroxy-4-(3-methyl-2-butenyl)-5-methoxystilbene-2-carboxylic acid] |  | significantly lower | significantly lower | normal and similar among the treatment groups | not effected by the treatments | 
OC[C@H]1O[C@@H](Oc2cc(O)cc(/C=C/c3ccc(O)cc3)c2)[C@H](O)[C@@H](O)[C@@H]1O [Piceid, 3,4′,5-trihydroxystilbene-3-O-β-D-glucopyranoside] | lower |  |  |  |  | lower
